Measurements as given in paper PMC11233931, “Remodeling tumor‐associated macrophage for anti‐cancer effects by rational design of irreversible inhibition of mitogen‐activated protein kinase‐activated protein kinase 2” (MedComm, 2024).

Columns and labels:
Assay in all cases: Eurofins kinase selectivity profile against 380 other human recombinant kinases (Table S2)
Type in all cases: biochemical
[1] = biological target: T1, 380 human recombinant protein kinases (Homo sapiens, UniProt P78527); details: DNA-PK(h), read-out: Inhibition rate (%)
T1 construct: purchased Eurofins (Celle Lévescault)
T1 sequence (P78527 whole entry): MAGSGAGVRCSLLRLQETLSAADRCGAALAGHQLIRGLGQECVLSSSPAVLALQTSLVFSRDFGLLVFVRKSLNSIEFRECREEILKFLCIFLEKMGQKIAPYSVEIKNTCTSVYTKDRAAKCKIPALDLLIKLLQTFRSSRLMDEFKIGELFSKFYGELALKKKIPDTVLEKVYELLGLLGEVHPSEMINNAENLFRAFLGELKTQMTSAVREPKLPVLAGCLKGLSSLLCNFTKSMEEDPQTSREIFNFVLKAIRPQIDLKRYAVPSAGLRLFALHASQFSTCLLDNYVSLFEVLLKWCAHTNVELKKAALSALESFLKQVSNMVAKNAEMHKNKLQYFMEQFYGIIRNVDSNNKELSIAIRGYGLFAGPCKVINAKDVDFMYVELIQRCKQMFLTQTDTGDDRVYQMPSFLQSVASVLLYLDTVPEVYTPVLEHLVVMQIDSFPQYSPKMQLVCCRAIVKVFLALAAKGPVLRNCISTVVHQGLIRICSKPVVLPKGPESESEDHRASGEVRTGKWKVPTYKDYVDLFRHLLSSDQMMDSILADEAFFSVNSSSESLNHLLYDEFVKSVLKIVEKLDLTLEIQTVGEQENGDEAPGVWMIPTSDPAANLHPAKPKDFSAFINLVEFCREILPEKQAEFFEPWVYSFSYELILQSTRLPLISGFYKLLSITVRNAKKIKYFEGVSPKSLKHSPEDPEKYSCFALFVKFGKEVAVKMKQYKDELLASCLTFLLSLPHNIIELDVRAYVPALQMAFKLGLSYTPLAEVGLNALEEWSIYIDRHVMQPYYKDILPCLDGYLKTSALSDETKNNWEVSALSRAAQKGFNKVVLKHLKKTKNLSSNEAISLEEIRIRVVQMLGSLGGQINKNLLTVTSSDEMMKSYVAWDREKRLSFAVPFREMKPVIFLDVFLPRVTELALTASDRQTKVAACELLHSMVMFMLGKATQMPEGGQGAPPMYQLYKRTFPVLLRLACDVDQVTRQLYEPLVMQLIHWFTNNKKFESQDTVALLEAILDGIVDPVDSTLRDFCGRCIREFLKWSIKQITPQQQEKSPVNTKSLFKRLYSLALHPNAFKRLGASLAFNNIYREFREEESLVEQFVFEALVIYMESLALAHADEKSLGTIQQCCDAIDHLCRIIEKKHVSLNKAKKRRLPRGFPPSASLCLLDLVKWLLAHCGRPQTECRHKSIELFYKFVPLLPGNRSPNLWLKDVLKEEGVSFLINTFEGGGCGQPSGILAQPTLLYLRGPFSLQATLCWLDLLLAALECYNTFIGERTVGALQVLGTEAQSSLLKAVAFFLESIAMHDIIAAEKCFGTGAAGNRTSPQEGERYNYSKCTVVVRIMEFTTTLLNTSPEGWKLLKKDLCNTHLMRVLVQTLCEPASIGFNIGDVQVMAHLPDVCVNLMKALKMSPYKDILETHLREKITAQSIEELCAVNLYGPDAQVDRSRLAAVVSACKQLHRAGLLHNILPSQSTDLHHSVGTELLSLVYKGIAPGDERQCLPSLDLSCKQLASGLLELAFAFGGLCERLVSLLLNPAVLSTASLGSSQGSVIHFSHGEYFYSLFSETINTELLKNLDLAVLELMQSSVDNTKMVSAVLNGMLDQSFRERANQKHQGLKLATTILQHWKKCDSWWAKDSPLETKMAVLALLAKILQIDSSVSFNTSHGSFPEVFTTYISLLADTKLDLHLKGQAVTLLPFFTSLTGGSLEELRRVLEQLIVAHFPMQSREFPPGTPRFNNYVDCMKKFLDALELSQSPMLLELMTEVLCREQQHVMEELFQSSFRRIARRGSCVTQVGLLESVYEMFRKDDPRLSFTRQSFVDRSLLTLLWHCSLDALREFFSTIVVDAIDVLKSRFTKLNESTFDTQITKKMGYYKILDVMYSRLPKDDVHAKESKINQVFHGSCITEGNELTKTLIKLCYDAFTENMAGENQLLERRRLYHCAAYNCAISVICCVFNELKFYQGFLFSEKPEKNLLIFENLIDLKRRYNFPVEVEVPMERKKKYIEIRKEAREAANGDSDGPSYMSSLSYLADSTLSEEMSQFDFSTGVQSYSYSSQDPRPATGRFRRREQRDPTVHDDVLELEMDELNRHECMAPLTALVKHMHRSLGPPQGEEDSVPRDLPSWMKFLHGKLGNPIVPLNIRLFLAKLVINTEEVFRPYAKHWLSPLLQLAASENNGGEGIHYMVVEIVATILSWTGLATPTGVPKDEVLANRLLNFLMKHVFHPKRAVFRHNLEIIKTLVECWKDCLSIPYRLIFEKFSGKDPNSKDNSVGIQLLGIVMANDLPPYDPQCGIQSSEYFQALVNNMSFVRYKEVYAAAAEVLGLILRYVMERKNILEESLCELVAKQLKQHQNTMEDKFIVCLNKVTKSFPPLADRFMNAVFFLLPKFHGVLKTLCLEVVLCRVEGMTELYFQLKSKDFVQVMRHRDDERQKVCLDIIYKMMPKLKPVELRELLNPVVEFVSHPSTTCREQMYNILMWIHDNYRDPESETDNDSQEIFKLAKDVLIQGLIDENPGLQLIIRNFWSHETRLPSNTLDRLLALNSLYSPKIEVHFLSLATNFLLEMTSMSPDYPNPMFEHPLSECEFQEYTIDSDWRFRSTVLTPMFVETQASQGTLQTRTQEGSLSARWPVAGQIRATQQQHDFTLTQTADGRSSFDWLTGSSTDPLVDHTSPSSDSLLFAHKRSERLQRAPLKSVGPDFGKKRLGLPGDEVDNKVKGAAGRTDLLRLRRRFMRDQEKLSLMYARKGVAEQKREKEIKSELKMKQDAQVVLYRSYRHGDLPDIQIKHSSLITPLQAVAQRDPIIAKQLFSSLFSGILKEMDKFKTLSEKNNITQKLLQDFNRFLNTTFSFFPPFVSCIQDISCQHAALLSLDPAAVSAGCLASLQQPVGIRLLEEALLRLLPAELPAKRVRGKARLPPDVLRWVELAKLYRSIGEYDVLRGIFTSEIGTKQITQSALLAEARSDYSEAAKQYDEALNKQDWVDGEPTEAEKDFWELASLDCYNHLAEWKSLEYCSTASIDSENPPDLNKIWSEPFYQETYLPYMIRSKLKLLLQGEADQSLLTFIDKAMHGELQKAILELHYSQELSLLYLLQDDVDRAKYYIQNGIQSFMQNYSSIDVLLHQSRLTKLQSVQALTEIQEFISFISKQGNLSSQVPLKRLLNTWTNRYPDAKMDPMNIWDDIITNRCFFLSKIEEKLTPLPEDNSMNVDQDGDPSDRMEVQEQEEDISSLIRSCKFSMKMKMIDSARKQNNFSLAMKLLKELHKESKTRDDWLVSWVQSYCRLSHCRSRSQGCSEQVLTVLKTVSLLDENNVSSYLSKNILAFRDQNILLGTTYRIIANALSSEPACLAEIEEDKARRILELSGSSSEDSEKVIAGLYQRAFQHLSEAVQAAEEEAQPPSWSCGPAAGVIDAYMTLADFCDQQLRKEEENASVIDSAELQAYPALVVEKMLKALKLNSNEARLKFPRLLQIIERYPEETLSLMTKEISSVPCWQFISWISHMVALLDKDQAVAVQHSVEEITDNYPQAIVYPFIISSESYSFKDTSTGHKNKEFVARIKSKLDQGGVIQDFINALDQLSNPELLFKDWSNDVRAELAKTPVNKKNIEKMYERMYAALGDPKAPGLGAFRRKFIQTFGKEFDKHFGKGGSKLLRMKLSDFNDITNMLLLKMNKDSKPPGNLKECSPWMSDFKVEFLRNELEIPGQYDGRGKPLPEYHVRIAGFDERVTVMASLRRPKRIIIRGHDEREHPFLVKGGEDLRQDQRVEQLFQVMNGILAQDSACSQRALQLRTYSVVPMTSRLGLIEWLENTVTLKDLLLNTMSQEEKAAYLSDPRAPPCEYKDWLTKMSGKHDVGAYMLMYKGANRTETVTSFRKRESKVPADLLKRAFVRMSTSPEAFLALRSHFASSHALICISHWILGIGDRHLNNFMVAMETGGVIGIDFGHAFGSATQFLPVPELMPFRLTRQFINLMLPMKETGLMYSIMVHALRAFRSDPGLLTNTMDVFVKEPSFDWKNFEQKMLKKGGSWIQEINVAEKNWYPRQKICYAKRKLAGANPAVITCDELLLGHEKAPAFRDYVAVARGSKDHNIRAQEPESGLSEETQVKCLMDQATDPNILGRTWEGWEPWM
Method in brief: (§1)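 Off-target profiling: one compound assayed by a commercial provider over 380 recombinant human protein kinases at various concentrations.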

[2] = biological target: T2, 380 human recombinant protein kinases (Homo sapiens, UniProt Q04912); details: Ron(h), read-out: Inhibition rate
T2 construct: purchased Eurofins (Celle Lévescault)
Method in brief: as §1

[3] = biological target: T3, 380 human recombinant protein kinases (Homo sapiens, UniProt P10721); details: cKit(h), read-out: Inhibition rate
T3 construct: purchased Eurofins (Celle Lévescault)
T3 sequence (P10721 26-976): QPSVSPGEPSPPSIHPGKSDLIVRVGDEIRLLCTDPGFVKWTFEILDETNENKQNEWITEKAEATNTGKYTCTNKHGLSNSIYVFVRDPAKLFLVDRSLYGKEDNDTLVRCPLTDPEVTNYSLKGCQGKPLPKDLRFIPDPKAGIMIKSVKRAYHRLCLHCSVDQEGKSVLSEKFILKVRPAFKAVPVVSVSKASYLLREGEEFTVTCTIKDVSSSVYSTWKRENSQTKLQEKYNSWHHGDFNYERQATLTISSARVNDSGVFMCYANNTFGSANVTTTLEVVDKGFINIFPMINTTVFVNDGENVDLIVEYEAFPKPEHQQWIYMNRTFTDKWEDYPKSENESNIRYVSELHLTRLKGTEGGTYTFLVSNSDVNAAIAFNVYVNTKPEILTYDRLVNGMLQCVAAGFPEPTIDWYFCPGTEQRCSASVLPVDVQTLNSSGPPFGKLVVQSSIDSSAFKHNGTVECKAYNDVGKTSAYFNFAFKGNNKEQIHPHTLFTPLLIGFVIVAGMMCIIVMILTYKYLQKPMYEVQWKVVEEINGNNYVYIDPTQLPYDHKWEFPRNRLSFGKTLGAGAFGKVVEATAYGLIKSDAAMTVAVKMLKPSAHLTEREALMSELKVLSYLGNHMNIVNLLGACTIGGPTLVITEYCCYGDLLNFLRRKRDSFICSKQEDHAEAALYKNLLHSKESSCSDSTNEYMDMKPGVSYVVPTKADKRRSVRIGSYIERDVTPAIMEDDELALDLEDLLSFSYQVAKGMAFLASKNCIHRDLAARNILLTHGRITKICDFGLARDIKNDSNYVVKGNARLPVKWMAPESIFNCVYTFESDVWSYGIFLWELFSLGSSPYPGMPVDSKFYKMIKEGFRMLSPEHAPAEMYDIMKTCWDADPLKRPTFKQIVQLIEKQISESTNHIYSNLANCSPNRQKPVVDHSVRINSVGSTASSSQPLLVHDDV
Method in brief: as §1

[4] = biological target: T4, 380 human recombinant protein kinases (Homo sapiens, UniProt Q5TCY1); details: TTBK1(h), read-out: Inhibition rate (%)
T4 construct: purchased Eurofins (Celle Lévescault)
Method in brief: as §1

[5] = biological target: T5, 380 human recombinant protein kinases (Homo sapiens, UniProt P35916); details: Flt4(h), read-out: Inhibition rate
T5 construct: purchased Eurofins (Celle Lévescault)
Method in brief: as §1

[6] = biological target: T6, 380 human recombinant protein kinases (Homo sapiens, UniProt Q16288); details: TrkC(h), read-out: Inhibition rate (%)
T6 construct: purchased Eurofins (Celle Lévescault)
Method in brief: as §1

[7] = biological target: T7, 380 human recombinant protein kinases (Homo sapiens, UniProt Q05513); details: PKCζ(h), read-out: Inhibition rate
T7 construct: purchased Eurofins (Celle Lévescault)
T7 sequence (Q05513 1-592): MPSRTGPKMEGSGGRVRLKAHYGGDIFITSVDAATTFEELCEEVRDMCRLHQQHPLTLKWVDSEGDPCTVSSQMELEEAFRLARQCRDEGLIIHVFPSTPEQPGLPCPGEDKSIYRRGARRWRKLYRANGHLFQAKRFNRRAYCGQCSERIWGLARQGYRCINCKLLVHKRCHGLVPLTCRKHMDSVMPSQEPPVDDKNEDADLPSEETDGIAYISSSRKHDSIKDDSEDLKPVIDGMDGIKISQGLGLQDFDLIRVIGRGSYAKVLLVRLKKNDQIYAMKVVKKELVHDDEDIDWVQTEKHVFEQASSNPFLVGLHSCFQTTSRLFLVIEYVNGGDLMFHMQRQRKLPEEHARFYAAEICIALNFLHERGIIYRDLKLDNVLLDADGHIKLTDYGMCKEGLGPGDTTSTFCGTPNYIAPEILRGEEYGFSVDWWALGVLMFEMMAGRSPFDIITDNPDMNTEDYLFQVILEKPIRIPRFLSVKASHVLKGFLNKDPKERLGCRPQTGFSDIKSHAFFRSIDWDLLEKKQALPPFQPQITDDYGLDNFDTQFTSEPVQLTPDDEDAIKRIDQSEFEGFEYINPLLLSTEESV
Method in brief: as §1

[8] = biological target: T8, 380 human recombinant protein kinases (Homo sapiens, UniProt Q12866); details: Mer(h), read-out: Inhibition rate
T8 construct: purchased Eurofins (Celle Lévescault)
T8 sequence (Q12866 21-999): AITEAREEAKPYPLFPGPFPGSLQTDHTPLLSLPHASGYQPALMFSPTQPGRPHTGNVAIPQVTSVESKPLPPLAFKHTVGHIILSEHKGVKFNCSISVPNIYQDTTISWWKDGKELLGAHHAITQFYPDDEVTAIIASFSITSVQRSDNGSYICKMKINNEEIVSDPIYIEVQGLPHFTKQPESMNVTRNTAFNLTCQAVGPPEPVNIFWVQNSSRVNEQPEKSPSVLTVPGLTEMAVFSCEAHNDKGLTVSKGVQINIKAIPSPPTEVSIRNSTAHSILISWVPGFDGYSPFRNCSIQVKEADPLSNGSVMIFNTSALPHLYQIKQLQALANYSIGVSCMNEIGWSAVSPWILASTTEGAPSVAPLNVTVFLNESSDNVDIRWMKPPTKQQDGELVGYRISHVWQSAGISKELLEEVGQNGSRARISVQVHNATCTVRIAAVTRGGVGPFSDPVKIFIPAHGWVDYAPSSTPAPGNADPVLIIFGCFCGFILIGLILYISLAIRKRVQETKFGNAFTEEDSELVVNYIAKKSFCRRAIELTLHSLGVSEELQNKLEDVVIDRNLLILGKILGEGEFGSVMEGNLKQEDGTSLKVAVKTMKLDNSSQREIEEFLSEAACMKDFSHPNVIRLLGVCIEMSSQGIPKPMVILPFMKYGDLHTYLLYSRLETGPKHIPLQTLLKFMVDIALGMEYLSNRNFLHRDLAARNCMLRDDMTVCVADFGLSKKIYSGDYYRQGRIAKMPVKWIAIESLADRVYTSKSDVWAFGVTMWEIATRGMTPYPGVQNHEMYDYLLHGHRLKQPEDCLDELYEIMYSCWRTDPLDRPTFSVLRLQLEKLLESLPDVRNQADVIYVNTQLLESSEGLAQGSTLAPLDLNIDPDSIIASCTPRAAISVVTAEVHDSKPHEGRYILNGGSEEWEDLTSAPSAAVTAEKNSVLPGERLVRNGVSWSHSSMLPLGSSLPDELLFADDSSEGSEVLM
Method in brief: as §1

[9] = biological target: T9, 380 human recombinant protein kinases (Homo sapiens, UniProt Q00534); details: CDK6/cyclinD3(h), read-out: Inhibition rate
T9 construct: purchased Eurofins (Celle Lévescault)
Method in brief: as §1

Q: With `C=CC(=O)Nc1cc(-c2cc(-c3cc4c([nH]3)CCNC4=O)ccn2)ccc1OC(F)(F)F` [compound 11] as the compound, how does the inhibition at 0.01 µM ([1]; 10 nM) read?
A: -1%

Q: And the inhibition at 0.1 µM ([1]; 100 nM)?
A: 2%

Q: And the inhibition at 1 µM ([1]; 1000 nM)?
A: 3%

Q: And the inhibition at 0.01 µM ([2]; 10 nM)?
A: -4%

Q: What about the inhibition at 0.1 µM ([2]; 100 nM) of the same compound?
A: 26%

Q: And the inhibition at 1 µM ([2]; 1000 nM)?
A: 77%

Q: What about the inhibition at 0.01 µM ([3]; 10 nM) of the same compound?
A: 1%

Q: And the inhibition at 0.1 µM ([3]; 100 nM)?
A: -14%

Q: What about the inhibition at 1 µM ([3]; 1000 nM) of the same compound?
A: 9%

Q: And the inhibition at 0.01 µM ([4]; 10 nM)?
A: -2%

Q: And the inhibition at 0.1 µM ([4]; 100 nM)?
A: -5%

Q: What about the inhibition at 1 µM ([4]; 1000 nM) of the same compound?
A: 3%

Q: And the inhibition at 0.01 µM ([5]; 10 nM)?
A: -8%

Q: What about the inhibition at 0.1 µM ([5]; 100 nM) of the same compound?
A: 5%

Q: And the inhibition at 1 µM ([5]; 1000 nM)?
A: 43%

Q: What about the inhibition at 0.01 µM ([6]; 10 nM) of the same compound?
A: -3%

Q: And the inhibition at 0.1 µM ([6]; 100 nM)?
A: 4%

Q: What about the inhibition at 1 µM ([6]; 1000 nM) of the same compound?
A: -3%

Q: What about the inhibition at 0.01 µM ([7]; 10 nM) of the same compound?
A: -5%

Q: And the inhibition at 0.1 µM ([7]; 100 nM)?
A: -4%

Q: What about the inhibition at 1 µM ([7]; 1000 nM) of the same compound?
A: -8%

Q: And the inhibition at 0.01 µM ([8]; 10 nM)?
A: -21%

Q: What about the inhibition at 0.1 µM ([8]; 100 nM) of the same compound?
A: 4%

Q: What about the inhibition at 1 µM ([8]; 1000 nM) of the same compound?
A: 28%

Q: What about the inhibition at 0.01 µM ([9]; 10 nM) of the same compound?
A: 2%

Q: And the inhibition at 0.1 µM ([9]; 100 nM)?
A: 6%

Q: What about the inhibition at 1 µM ([9]; 1000 nM) of the same compound?
A: -3%
